We go through one compound from patent publication US8017321B2, “Gefitinib sensitivity-related gene expression and products and methods related thereto” (The Regents of the University of Colorado, A Body Corporate, priority 2005, dated 2011).

Assay [1] concerns A549 NSCLC xenografts. Put plainly: Athymic nude mice bearing human NSCLC xenografts (FIG. 5). Format: in vivo. An excerpt: FIG. 5 is a line graph showing the effects of gefitinib on A549 NSCLC xenografts.
Assay [2] concerns NSCLC. Particulars: chemo-refractory advanced stage NSCLC, phase II clinical trials; cited from earlier work.

Take `COc1cc2ncnc(Nc3ccc(F)c(Cl)c3)c2cc1OCCCN1CCOCC1` [ZD 1839, gefitinib]: the “tumor growth of NSCLC xenografts after treatment” value is “Growth delay was evident” in assay [1] (listed as ZD1839) and “inhibitory effect” in assay [1] (listed as gefitinib). Also, the “patients responding to treatment” value in assay [2] is 11-20%.
